Reference: ChEMBL document CHEMBL4138146, “A Schmidt rearrangement-mediated synthesis of novel tetrahydro-benzo[1,4]diazepin-5-ones as potential anticancer and antiprotozoal agents” (Eur J Med Chem, 2017)

Key:
Type in all cases: functional
SNB-19 = test: Growth inhibition of human SNB19 cells assessed as cell growth at 10 uM incubated for 48 hrs by sulforhodamine B assay relative to control; settings: SNB-19, 48 h, read-out: Activity
RXF 393 = test: Growth inhibition of human RXF393 cells assessed as cell growth at 10 uM incubated for 48 hrs by sulforhodamine B assay relative to control; settings: RXF 393, 48 h, read-out: Activity
UO-31 = test: Growth inhibition of human UO31 cells assessed as cell growth at 10 uM incubated for 48 hrs by sulforhodamine B assay relative to control; settings: UO-31, 48 h, read-out: Activity
SK-MEL-28 = test: Growth inhibition of human SK-MEL-28 cells assessed as cell growth at 10 uM incubated for 48 hrs by sulforhodamine B assay relative to control; settings: SK-MEL-28, 48 h, read-out: Activity
UACC-62 = test: Growth inhibition of human UACC62 cells assessed as cell growth at 10 uM incubated for 48 hrs by sulforhodamine B assay relative to control; settings: UACC-62, 48 h, read-out: Activity
KM12 = test: Growth inhibition of human KM12 cells assessed as cell growth at 10 uM incubated for 48 hrs by sulforhodamine B assay relative to control; settings: KM12, 48 h, read-out: Activity
CCRF-CEM = test: Growth inhibition of human CCRF-CEM cells assessed as cell growth at 10 uM incubated for 48 hrs by sulforhodamine B assay relative to control; settings: read-out: Activity
A549 = test: Growth inhibition of human A549/ATCC cells assessed as cell growth at 10 uM incubated for 48 hrs by sulforhodamine B assay relative to control; settings: A549, 48 h, read-out: Activity
SK-MEL-2 = test: Growth inhibition of human SK-MEL-2 cells assessed as cell growth at 10 uM incubated for 48 hrs by sulforhodamine B assay relative to control; settings: SK-MEL-2, 48 h, read-out: Activity
OVCAR-4 = test: Growth inhibition of human OVCAR4 cells assessed as cell growth at 10 uM incubated for 48 hrs by sulforhodamine B assay relative to control; settings: OVCAR-4, 48 h, read-out: Activity
SF-539 = test: Growth inhibition of human SF539 cells assessed as cell growth at 10 uM incubated for 48 hrs by sulforhodamine B assay relative to control; settings: SF-539, 48 h, read-out: Activity
U-251 = test: Growth inhibition of human U251 cells assessed as cell growth at 10 uM incubated for 48 hrs by sulforhodamine B assay relative to control; settings: U-251, 48 h, read-out: Activity
SNB-75 = test: Growth inhibition of human SNB75 cells assessed as cell growth at 10 uM incubated for 48 hrs by sulforhodamine B assay relative to control; settings: SNB-75, 48 h, read-out: Activity
HT-29 = test: Growth inhibition of human HT-29 cells assessed as cell growth at 10 uM incubated for 48 hrs by sulforhodamine B assay relative to control; settings: HT-29, 48 h, read-out: Activity
COLO 205 = test: Growth inhibition of human COLO205 cells assessed as cell growth at 10 uM incubated for 48 hrs by sulforhodamine B assay relative to control; settings: COLO 205, 48 h, read-out: Activity
HOP-92 = test: Growth inhibition of human HOP92 cells assessed as cell growth at 10 uM incubated for 48 hrs by sulforhodamine B assay relative to control; settings: HOP-92, 48 h, read-out: Activity
TK-10 = test: Growth inhibition of human TK10 cells assessed as cell growth at 10 uM incubated for 48 hrs by sulforhodamine B assay relative to control; settings: TK-10, 48 h, read-out: Activity
BT-549 = test: Growth inhibition of human BT549 cells assessed as cell growth at 10 uM incubated for 48 hrs by sulforhodamine B assay relative to control; settings: BT-549, 48 h, read-out: Activity
HOP-62 = test: Growth inhibition of human HOP62 cells assessed as cell growth at 10 uM incubated for 48 hrs by sulforhodamine B assay relative to control; settings: HOP-62, 48 h, read-out: Activity
LOX IMVI = test: Growth inhibition of human LOXIMVI cells assessed as cell growth at 10 uM incubated for 48 hrs by sulforhodamine B assay relative to control; settings: read-out: Activity
HCC 2998 = test: Growth inhibition of human HCC2998 cells assessed as cell growth at 10 uM incubated for 48 hrs by sulforhodamine B assay relative to control; settings: HCC 2998, 48 h, read-out: Activity
MDA-MB-231 = test: Growth inhibition of human MDA-MB-231 cells assessed as cell growth at 10 uM incubated for 48 hrs by sulforhodamine B assay relative to control; settings: MDA-MB-231, 48 h, read-out: Activity
NCI/ADR-RES = test: Growth inhibition of human NCI/ADR-RES cells assessed as cell growth at 10 uM incubated for 48 hrs by sulforhodamine B assay relative to control; settings: read-out: Activity
CAKI-1 = test: Growth inhibition of human Caki1 cells assessed as cell growth at 10 uM incubated for 48 hrs by sulforhodamine B assay relative to control; settings: CAKI-1, 48 h, read-out: Activity
OVCAR-3 = test: Growth inhibition of human OVCAR3 cells assessed as cell growth at 10 uM incubated for 48 hrs by sulforhodamine B assay relative to control; settings: OVCAR-3, 48 h, read-out: Activity
SN12C = test: Growth inhibition of human SN12C cells assessed as cell growth at 10 uM incubated for 48 hrs by sulforhodamine B assay relative to control; settings: read-out: Activity
NCI-H226 = test: Growth inhibition of human NCI-H226 cells assessed as cell growth at 10 uM incubated for 48 hrs by sulforhodamine B assay relative to control; settings: NCI-H226, 48 h, read-out: Activity
OVCAR-8 = test: Growth inhibition of human OVCAR8 cells assessed as cell growth at 10 uM incubated for 48 hrs by sulforhodamine B assay relative to control; settings: OVCAR-8, 48 h, read-out: Activity
Malme-3M = test: Growth inhibition of human MALME-3M cells assessed as cell growth at 10 uM incubated for 48 hrs by sulforhodamine B assay relative to control; settings: read-out: Activity
A498 = test: Growth inhibition of human A498 cells assessed as cell growth at 10 uM incubated for 48 hrs by sulforhodamine B assay relative to control; settings: A498, 48 h, read-out: Activity
Hs-578T = test: Growth inhibition of human Hs 578T cells assessed as cell growth at 10 uM incubated for 48 hrs by sulforhodamine B assay relative to control; settings: read-out: Activity
SF-268 = test: Growth inhibition of human SF268 cells assessed as cell growth at 10 uM incubated for 48 hrs by sulforhodamine B assay relative to control; settings: SF-268, 48 h, read-out: Activity
NCI-H522 = test: Growth inhibition of human NCI-H522 cells assessed as cell growth at 10 uM incubated for 48 hrs by sulforhodamine B assay relative to control; settings: NCI-H522, 48 h, read-out: Activity

Structure (SMILES) | growth at 10 µM (SNB-19) [%] | growth at 10 µM (RXF 393) [%] | growth at 10 µM (UO-31) [%] | growth at 10 µM (SK-MEL-28) [%] | growth at 10 µM (UACC-62) [%] | growth at 10 µM (KM12) [%] | growth at 10 µM (CCRF-CEM) [%] | growth at 10 µM (A549) [%] | growth at 10 µM (SK-MEL-2) [%] | growth at 10 µM (OVCAR-4) [%] | growth at 10 µM (SF-539) [%] | growth at 10 µM (U-251) [%] | growth at 10 µM (SNB-75) [%] | growth at 10 µM (HT-29) [%] | growth at 10 µM (COLO 205) [%] | growth at 10 µM (HOP-92) [%] | growth at 10 µM (TK-10) [%] | growth at 10 µM (BT-549) [%] | growth at 10 µM (HOP-62) [%] | growth at 10 µM (LOX IMVI) [%] | further results
Cc1cccc2cc(C3CNC(=O)c4ccccc4N3)c(=O)[nH]c12 (configuration not stated) | 114 | 106 | 92.8 | 102 | 106 | 99.6 | 123 | 91.7 | 96.9 | 92.1 | 94.9 | 94.5 | 86.5 | 81.3 | 108 | 94.9 | 94.6 | 112 | 89.6 | 94.3 | growth at 10 µM (HCC 2998): 103%; growth at 10 µM (MDA-MB-231): 110%; growth at 10 µM (NCI/ADR-RES): 103%; growth at 10 µM (CAKI-1): 100%; growth at 10 µM (OVCAR-3): 104%; growth at 10 µM (SN12C): 114%; growth at 10 µM (NCI-H226): 85.6%; growth at 10 µM (OVCAR-8): 103%; growth at 10 µM (Malme-3M): 96%; growth at 10 µM (A498): 103%; growth at 10 µM (Hs-578T): 105%; growth at 10 µM (SF-268): 99.6%; growth at 10 µM (NCI-H522): 70%
CCCCOc1nc2ccc(OC)cc2cc1C1CNC(=O)c2ccccc2N1 (configuration not stated) | 105 | 109 | 78.1 | 102 | 76.2 | 96.6 | 106 | 86.4 | 88.7 | 99.3 | 95.3 | 106 | 89.5 | 100 | 106 | 90.4 | 97 | 98.1 | 96 | 104 | growth at 10 µM (HCC 2998): 123%; growth at 10 µM (MDA-MB-231): 83.6%; growth at 10 µM (NCI/ADR-RES): 109%; growth at 10 µM (CAKI-1): 77.7%; growth at 10 µM (OVCAR-3): 101%; growth at 10 µM (SN12C): 91.5%; growth at 10 µM (NCI-H226): 87.1%; growth at 10 µM (OVCAR-8): 102%; growth at 10 µM (Malme-3M): 123%; growth at 10 µM (A498): 88.5%; growth at 10 µM (Hs-578T): 105%; growth at 10 µM (SF-268): 99%; growth at 10 µM (NCI-H522): 77.4%
CCCCOc1nc2ccccc2cc1C1CNC(=O)c2ccccc2N1 (configuration not stated) | 33.4 | -14.3 | 41.3 | 45.8 | 32.6 | 23.9 | 12.6 | 19.9 | 15.7 | 47.7 | -25.5 | 18.6 | 3.14 | 0.87 | 9.84 | 48.9 | 34.3 | 41 | 23 | 27.1 | growth at 10 µM (HCC 2998): 56.5%; growth at 10 µM (MDA-MB-231): 47.5%; growth at 10 µM (NCI/ADR-RES): 3.84%; growth at 10 µM (CAKI-1): 42.6%; growth at 10 µM (OVCAR-3): -9.73%; growth at 10 µM (SN12C): 44.1%; growth at 10 µM (NCI-H226): 0.7%; growth at 10 µM (OVCAR-8): 22.4%; growth at 10 µM (Malme-3M): 45.6%; growth at 10 µM (A498): -11.2%; growth at 10 µM (Hs-578T): 34.1%; growth at 10 µM (SF-268): 43.6%; growth at 10 µM (NCI-H522): -13.6%
O=C1NCC(c2cc3ccc(Cl)cc3[nH]c2=O)Nc2ccccc21 (configuration not stated) | 108 | 97.2 | 88.7 | 105 | 106 | 103 | 134 | 73.9 | 103 | 94 | 95 | 88.9 | 84.3 | 72.2 | 94.9 | 74 | 83 | 99.9 | 81.3 | 96.3 | growth at 10 µM (HCC 2998): 105%; growth at 10 µM (MDA-MB-231): 118%; growth at 10 µM (NCI/ADR-RES): 99.4%; growth at 10 µM (CAKI-1): 101%; growth at 10 µM (OVCAR-3): 109%; growth at 10 µM (SN12C): 111%; growth at 10 µM (NCI-H226): 79.7%; growth at 10 µM (OVCAR-8): 97.8%; growth at 10 µM (Malme-3M): 93.4%; growth at 10 µM (A498): 112%; growth at 10 µM (Hs-578T): 113%; growth at 10 µM (SF-268): 106%; growth at 10 µM (NCI-H522): 63.8%
